# Results published in patent publication US20230295560A1, “SYNTHETIC ECOLOGIES FOR DRUG DISCOVERY” (priority 2021, published 2023).
# Assays:
# [1] = tested on: E. coli BW25113; test: Minimum inhibitory concentration (MIC) of DOX for E. coli BW25113 ancestor and end-point isolates; type: cell-based
# Method: Experimental protocol. Five populations of E. coli were adapted to DOX in flasks to identify the selection gradient for adaptation to DOX. On the first day, six different colonies were used to inoculate control and five populations containing fresh media. The growth media for E. coli was Lysogeny broth (LB; 10 g/l tryptone, 5 g/l yeast extract, 5 g/l sodium chloride). The following day, each population was transferred to fresh media containing 1 μg/ml DOX with 100-fold dilutions. The fresh media containing desired DOX concentration was prepared by appropriate dilution of DOX stock solution. The stock solution was prepared by dissolving DOX (Tokyo Chemical Industry Co., LTD, Japan) in water, followed by filter sterilization through a 0.22 μm filter (Millex-GP, Millipore, Bedford, MA). The following day, each population was transferred to three tubes containing 1×, 1.5×, and 2× of the current DOX concentration. Hereafter, each population with the best growth was transferred into three new tubes while the control population was propagated in fresh media until twice the DOX clinical breakpoint (16 μg/ml) was reached. In a similar way, on the first day of serial transfer of E. coli to DOX in microdroplets, four to six different colonies were used to inoculate control and three to five populations containing fresh media. The following day, the growth media containing a starting size of ˜2.6×10^6 cells/ml was prepared for each population through appropriate dilution of overnight culture. Fluorinated oil (Novec 7500, 3M, St Paul, MN) with 1.5 w/w % surfactants (Pico-Surf 1™, Sphere Fluidics, Cambridge, UK) was the continuous phase while the growth media containing E. coli was the dispersed phase. These prepared continuous and dispersed phases were injected into four to six microfluidic chips using twelve-multi channel syringe pumps (New Era Pump Systems, Farmingdale, NY) with determined flow rates. More than 800 μl droplets for each population were collected in either a 1.5 ml microfuge tube or a 50 ml tube for the incubation at 37° C. After incubation for 24 h, these droplets were chemically broken with a demulsifier (1H, 1H, 2H, 2H-Perfluorooctanol, >97%, Alfa Aesar, Ward Hill, MA). After OD measurement, cells were propagated by dilution in fresh growth media containing higher DOX concentrations until a concentration of 16 μg/ml. Experiment images were captured using a bright-field inverted microscope (Eclipse Ti2, Nikon, Japan) with a mounted high-speed camera (Phantom V7.2).
# At the end of the experiment, individual end-point isolates were isolated randomly by streaking the entire population onto non-selective, nutrient-rich agar plates. End point isolates are defined as randomly selected, independent colonies derived from an evolved population. Since evolved populations are diverse, each end point isolate could potentially have different genotypes. A minimum of three end-point isolates was subjected to whole genome sequencing from each experimental evolution study. In addition, total genomic DNA for each evolved population was isolated and subjected to metagenomic analysis to identify the allelic frequency in the final populations (Dataset S1-S6). The populations were sequenced to achieve at least 100× coverage and a threshold of 5% was used to identify mutations. Both serial transfer and microdroplet populations identified the well-known adaptive alleles marR, acrR, rpsJ and envZ^32-35 as well as the movement of an insertion element IS186 into the upstream regulatory region of the gene encoding the Lon protease (FIG. 17). […] Both methods clearly implicated regulation of the AcrAB-TolC as the fundamental driver for DOX resistance, but there were interesting differences in the evolutionary trajectories identified.
# [2] = tested on: P. aeruginosa PAO1; conditions: cited from earlier work
# [3] = tested on: Enterobacter species; conditions: some Enterobacter species, after exposure to gradually increasing concentrations; cited from earlier work
compound,measurement,setting,value
C[C@H]1c2cccc(O)c2C(O)=C2C(=O)[C@]3(O)C(O)=C(C(N)=O)C(=O)[C@@H](N(C)C)[C@@H]3[C@@H](O)[C@@H]21 [DOX],MIC of DOX,"[1]; F (batch), end-point isolate 1-1",>16 µg/mL
same,MIC of DOX,"[1]; F (batch), end-point isolate 1-2",16 µg/mL
same,MIC of DOX,"[1]; F (batch), end-point isolate 1-3",16 µg/mL
same,MIC of DOX,"[1]; F (batch), end-point isolate 2-1",16 µg/mL
same,MIC of DOX,"[1]; F (batch), end-point isolate 2-2",16 µg/mL
same,MIC of DOX,"[1]; F (batch), end-point isolate 2-3",>16 µg/mL
same,MIC of DOX,"[1]; F (batch), end-point isolate 3-1",16 µg/mL
same,MIC of DOX,"[1]; F (batch), end-point isolate 3-2",16 µg/mL
same,MIC of DOX,"[1]; F (batch), end-point isolate 3-3",16 µg/mL
same,MIC of DOX,"[1]; F (batch), end-point isolate 4-1",16 µg/mL
same,MIC of DOX,"[1]; F (batch), end-point isolate 4-2",16 µg/mL
same,MIC of DOX,"[1]; F (batch), end-point isolate 4-3",>16 µg/mL
same,MIC of DOX,"[1]; F (batch), end-point isolate 5-1",16 µg/mL
same,MIC of DOX,"[1]; F (batch), end-point isolate 5-2",>16 µg/mL
same,MIC of DOX,"[1]; F (batch), end-point isolate 5-3",>16 µg/mL
same,MIC of DOX,"[1]; F (batch), isolate C1 (no drug control)",4 µg/mL
same,MIC of DOX,"[1]; F (batch), isolate C2 (no drug control)",4 µg/mL
same,MIC of DOX,"[1]; F (batch), isolate C3 (no drug control)",4 µg/mL
same,MIC of DOX for the ancestor,[1]; ancestor E. coli BW25113,4 µg/mL
same,MIC of DOX,"[1]; microemulsion D1, end-point isolate 1-1",8 µg/mL
same,MIC of DOX,"[1]; microemulsion D1, end-point isolate 1-2",8 µg/mL
same,MIC of DOX,"[1]; microemulsion D1, end-point isolate 1-3",8 µg/mL
same,MIC of DOX,"[1]; microemulsion D1, end-point isolate 2-1",16 µg/mL
same,MIC of DOX,"[1]; microemulsion D1, end-point isolate 2-2",16 µg/mL
same,MIC of DOX,"[1]; microemulsion D1, end-point isolate 2-3",16 µg/mL
same,MIC of DOX,"[1]; microemulsion D1, end-point isolate 3-1",16 µg/mL
same,MIC of DOX,"[1]; microemulsion D1, end-point isolate 3-2",16 µg/mL
same,MIC of DOX,"[1]; microemulsion D1, end-point isolate 3-3",16 µg/mL
same,MIC of DOX,"[1]; microemulsion D1, end-point isolate 4-1",16 µg/mL
same,MIC of DOX,"[1]; microemulsion D1, end-point isolate 4-2",>16 µg/mL
same,MIC of DOX,"[1]; microemulsion D1, end-point isolate 4-3",16 µg/mL
same,MIC of DOX,"[1]; microemulsion D1, end-point isolate 5-1",16 µg/mL
same,MIC of DOX,"[1]; microemulsion D1, end-point isolate 5-2",16 µg/mL
same,MIC of DOX,"[1]; microemulsion D1, end-point isolate 5-3",16 µg/mL
same,MIC of DOX,"[1]; microemulsion D1, isolate C1 (no drug control)",4 µg/mL
same,MIC of DOX,"[1]; microemulsion D1, isolate C2 (no drug control)",4 µg/mL
same,MIC of DOX,"[1]; microemulsion D1, isolate C3 (no drug control)",4 µg/mL
same,MIC of DOX,"[1]; microemulsion D2, end-point isolate 1-1",16 µg/mL
same,MIC of DOX,"[1]; microemulsion D2, end-point isolate 1-2",16 µg/mL
same,MIC of DOX,"[1]; microemulsion D2, end-point isolate 1-3",16 µg/mL
same,MIC of DOX,"[1]; microemulsion D2, end-point isolate 2-1",16 µg/mL
same,MIC of DOX,"[1]; microemulsion D2, end-point isolate 2-2",16 µg/mL
same,MIC of DOX,"[1]; microemulsion D2, end-point isolate 2-3",16 µg/mL
same,MIC of DOX,"[1]; microemulsion D2, end-point isolate 3-1",16 µg/mL
same,MIC of DOX,"[1]; microemulsion D2, end-point isolate 3-2",16 µg/mL
same,MIC of DOX,"[1]; microemulsion D2, end-point isolate 3-3",16 µg/mL
same,MIC of DOX,"[1]; microemulsion D2, end-point isolate 4-1",16 µg/mL
same,MIC of DOX,"[1]; microemulsion D2, end-point isolate 4-2",16 µg/mL
same,MIC of DOX,"[1]; microemulsion D2, end-point isolate 4-3",16 µg/mL
same,MIC of DOX,"[1]; microemulsion D2, end-point isolate 5-1",16 µg/mL
same,MIC of DOX,"[1]; microemulsion D2, end-point isolate 5-2",16 µg/mL
same,MIC of DOX,"[1]; microemulsion D2, end-point isolate 5-3",16 µg/mL
same,MIC of DOX,"[1]; microemulsion D2, isolate C1 (no drug control)",4 µg/mL
same,MIC of DOX,"[1]; microemulsion D2, isolate C2 (no drug control)",4 µg/mL
same,MIC of DOX,"[1]; microemulsion D2, isolate C3 (no drug control)",4 µg/mL
same,MIC of DOX,"[1]; microemulsion D3, end-point isolate 1-1",16 µg/mL
same,MIC of DOX,"[1]; microemulsion D3, end-point isolate 1-2",16 µg/mL
same,MIC of DOX,"[1]; microemulsion D3, end-point isolate 1-3",16 µg/mL
same,MIC of DOX,"[1]; microemulsion D3, end-point isolate 2-1",8 µg/mL
same,MIC of DOX,"[1]; microemulsion D3, end-point isolate 2-2",16 µg/mL
same,MIC of DOX,"[1]; microemulsion D3, end-point isolate 2-3",8 µg/mL
same,MIC of DOX,"[1]; microemulsion D3, end-point isolate 3-1",16 µg/mL
same,MIC of DOX,"[1]; microemulsion D3, end-point isolate 3-2",8 µg/mL
same,MIC of DOX,"[1]; microemulsion D3, end-point isolate 3-3",16 µg/mL
same,MIC of DOX,"[1]; microemulsion D3, end-point isolate 4-1",16 µg/mL
same,MIC of DOX,"[1]; microemulsion D3, end-point isolate 4-2",16 µg/mL
same,MIC of DOX,"[1]; microemulsion D3, end-point isolate 4-3",16 µg/mL
same,MIC of DOX,"[1]; microemulsion D3, end-point isolate 5-1",16 µg/mL
same,MIC of DOX,"[1]; microemulsion D3, end-point isolate 5-2",16 µg/mL
same,MIC of DOX,"[1]; microemulsion D3, end-point isolate 5-3",16 µg/mL
same,MIC of DOX,"[1]; microemulsion D3, isolate C1 (no drug control)",4 µg/mL
same,MIC of DOX,"[1]; microemulsion D3, isolate C2 (no drug control)",4 µg/mL
same,MIC of DOX,"[1]; microemulsion D3, isolate C3 (no drug control)",4 µg/mL
same,MIC of DOX,"[1]; microemulsion D4, end-point isolate 4-1",16 µg/mL
same,MIC of DOX,"[1]; microemulsion D4, end-point isolate 4-2",16 µg/mL
same,MIC of DOX,"[1]; microemulsion D4, end-point isolate 4-3",16 µg/mL
same,MIC of DOX,"[1]; microemulsion D4, end-point isolate 5-1",16 µg/mL
same,MIC of DOX,"[1]; microemulsion D4, end-point isolate 5-2",16 µg/mL
same,MIC of DOX,"[1]; microemulsion D4, end-point isolate 5-3",8 µg/mL
same,MIC of DOX,"[1]; microemulsion D4, isolate C1 (no drug control)",4 µg/mL
same,MIC of DOX,"[1]; microemulsion D4, isolate C2 (no drug control)",4 µg/mL
same,MIC of DOX,"[1]; microemulsion D4, isolate C3 (no drug control)",4 µg/mL
same,MIC of DOX,"[1]; microemulsion D5, end-point isolate 1-1",16 µg/mL
same,MIC of DOX,"[1]; microemulsion D5, end-point isolate 1-2",>16 µg/mL
same,MIC of DOX,"[1]; microemulsion D5, end-point isolate 1-3",16 µg/mL
same,MIC of DOX,"[1]; microemulsion D5, end-point isolate 2-1",>16 µg/mL
same,MIC of DOX,"[1]; microemulsion D5, end-point isolate 2-2",16 µg/mL
same,MIC of DOX,"[1]; microemulsion D5, end-point isolate 2-3",16 µg/mL
same,MIC of DOX,"[1]; microemulsion D5, end-point isolate 3-1",>16 µg/mL
same,MIC of DOX,"[1]; microemulsion D5, end-point isolate 3-2",16 µg/mL
same,MIC of DOX,"[1]; microemulsion D5, end-point isolate 3-3",>16 µg/mL
same,MIC of DOX,"[1]; microemulsion D5, isolate C1 (no drug control)",4 µg/mL
same,MIC of DOX,"[1]; microemulsion D5, isolate C2 (no drug control)",4 µg/mL
same,MIC of DOX,"[1]; microemulsion D5, isolate C3 (no drug control)",4 µg/mL
O=C(N[C@H](CO)[C@H](O)c1ccc([N+](=O)[O-])cc1)C(Cl)Cl [chloramphenicol],MIC,[2],32 µg/mL
benzalkonium chloride,increase in minimum inhibitory concentration,[3],5-300 fold
